Patent publication US20210078958A1, “QUINAZOLINE DERIVATIVE AND USE THEREOF” (MEDSHINE DISCOVERY INC., priority 2017, published 2021)

How the values were obtained:
HER1 (ErbB1) = HER1 (ErbB1) (Homo sapiens, UniProt P00533); assay: in vitro enzyme activity, HER1 (ErbB1); assay type: biochemical; settings: human ErbB1, [γ-33P]ATP, poly(Glu, Tyr) substrate
Method: (§1) The purpose of this assay is to detect the in vitro inhibitory activity of compounds on HER1 (ErbB1), HER2 (ErbB2), and HER4 (ErbB4). The enzymes used in this assay are human ErbB1, ErbB2 and ErbB4. Eurofins Pharma Discovery Service provided the method for activity detection.
(§2) Steps and Method of the Assay (96-Well Plate):
(§3) A buffer solution of the test compounds in a dilution of 5-fold (5 μL), polypeptide substrate poly(Glu, Tyr) (4:1) (2.5 μL), ErbB (4-20 ng, 2.5 μL), MnCl2 (50 mM, 1.25 μL), dH2O (3.75 μL), and [γ-^33P]ATP (10 μL) were added, and incubated at 30° C. for 10 minutes. The reaction was terminated by adding 3% phosphoric acid. 10 μL of the sample was taken and transferred to Filtermate A. The filter disc was washed 3 times with 75 mM phosphoric acid and once with methanol. The filter disc was transferred to a sealed plastic bag and the scintillation mixture (4 mL) was added. The intensity of the emitted photon was detected by a scintillation luminescence counter. The CPM (times/min) of the enzyme sample was compared with the CPM of the internal control sample. The level of photon intensity reflected the degree of the tyrosine kinase activity.

HER4 (ErbB4) = HER4 (ErbB4) (Homo sapiens, UniProt Q15303); assay: in vitro enzyme activity, HER4 (ErbB4); assay type: biochemical; settings: human ErbB4, [γ-33P]ATP, poly(Glu, Tyr) substrate
Method: as §1, §2, §3

[1] = system: subcutaneous xenograft tumor of human gastric cancer NCI-N87 cells; assay type: in vivo; settings: for Tumor volume (mm3) (Day 21) / T/C (%) / TGI (%): 3 mg/kg, NCI-N87 xenograft; for Tumor volume (mm3) (Day 21): Mean ± SEM; for T/C (%) / TGI (%): day 21; for body weight of test animals (reference index for drug toxicity): mouse, in vivo
Method: Purpose of the assay: to evaluate the in vivo efficacy of compounds to be tested on subcutaneous xenograft tumor of human gastric cancer NCI-N87 cells in a BALB/c nude mouse model.
Animals of the assay: female BALB/c nude mice, 6-8 weeks old, weighted 18-22 grams; supplier: shanghai sippr bk laboratory animals Ltd.
Human gastric cancer NCI-N87 cells were cultured in monolayer in vitro. The culture conditions were RPMI-1640 medium plus 10% fetal bovine serum, 100 U/mL penicillin, 100 μg/mL streptomycin and 2 mM glutamine, 37° C., 5% CO2. The passaging was performed by the conventional digestion with trypsin-EDTA twice a week. When the cell saturation was 80%-90%, the cells were collected, counted and inoculated.
0.2 mL (10×10^6 cells) of NCI-N87 cells were inoculated subcutaneously on the right back of each nude mouse (PBS+Matrigel, 1:1). When the average tumor volume reached 145 mm^3, administration to each group was started.
The test compounds were formulated into a 0.3 mg/mL clear solution in the solvents of 10% NMP (N-methylpyrrolidone)+10% ethylene glycol stearate+80% water.
The assay index is to investigate whether tumor growth is inhibited, delayed or cured. Tumor diameter was measured twice a week with a vernier caliper. The calculation formula of tumor volume is: V=0.5a×b^2, wherein a and b represent the long and short diameters of tumor, respectively.
The antitumor efficacy of the compounds were evaluated by TGI (%) or relative tumor proliferation rate T/C (%). TGI (%) reflects the tumor growth inhibition rate. TGI (%) is calculated as follows: TGI (%)=[1−(average tumor volume at the end of administration for a certain treatment group−average tumor volume at the beginning of administration for this treatment group)/(average tumor volume at the end of treatment for a solvent control group−average tumor volume at the beginning of administration for this solvent control group)][…].
Relative tumor proliferation rate T/C (%): the calculation formula is as follows: T/C %=TRTV/CRTV (TRTV: RTV for the treatment group; CRTV: RTV for the negative control group). Relative tumor volume (RTV) is calculated based on tumor measurement results. The calculation formula is RTV=Vt/V0, wherein V0 is the average tumor volume measured at the beginning of administration (i.e., d0) to each group, Vt is the average tumor volume at a certain measurement, and the data for TRTV and CRTV were taken on the same day.
The tumor weight was measured after the assay is over and the T/C weight percentage was calculated. T weight and C weight represent the tumor weight of the administration group and the vehicle control group, respectively.
Statistical analysis included the mean and standard error (SEM) of tumor volume at each time point in each group. […] The comparison between two groups was analyzed by T-test, and the comparison among three or more groups was analyzed by one-way ANOVA. […] All data analysis was carried out with SPSS 17.0. p<0.05 was considered a significant difference.

HER2 (ErbB2) = HER2 (ErbB2) (Homo sapiens, UniProt P04626); assay: in vitro enzyme activity, HER2 (ErbB2); assay type: biochemical; settings: human ErbB2, [γ-33P]ATP, poly(Glu, Tyr) substrate
Method: as §1, §2, §3

NCI-N87 cell = assay: inhibitory activity on cell proliferation (Cell-Titer-Glo), NCI-N87; assay type: cell-based; settings: Homo sapiens
Text: Purpose of the assay: to detect the inhibitory activity of the test compounds on cell proliferation.
Principle of the assay: the luciferase in a Cell-Titer-Glo reagent produces oxidized luciferin with luciferin, oxygen and ATP as reaction substrates, and releases energy in the form of light. Since the luciferase reaction requires ATP, the total amount of light generated by the reaction is proportional to the total amount of ATP that reflects cell viability.
Cell Titer-Glo cell viability assay kit with luminescence (Promega #G7573)
According to the schematic diagram of the cell seed plate, cells were seeded in a 384- or 96-well plate at a density of 1000 cells per well and 25 μL per well, and 25 μL of PBS was added to the wells near edge of the place where no cells were seeded.
(1) The stock solution of the compounds has a concentration of 10 mM, and the compounds were diluted with DMSO to an initial concentration of 4 mM. The compounds were added to the plate with stock solution of compounds, 9 μL per well.
(2) The compounds were diluted with an ECHO liquid workstation, where 125 nL of compounds were added to each well of the cell plate, 125 nL of DMSO was added to each of the cell well in columns 2 and 23, and 125 nL of DMSO was added to each PBS well in columns 1 and 24.
2.3 After addition of the compounds, the cell plate was centrifuged at 1000 rpm for 1 min, and then placed in a 37° C., 5% CO2 incubator for incubation for 3 days.
The cell plate was taken out from the incubator and equilibrated at room temperature for 30 minutes. 25 μL of Cell-Titer-Glo reagent was added to each well, shaken for one minute to allow well mixed, and centrifuged at 1000 rpm for 1 minute. After 10 minutes, the plate was read on PerkinElmer Envision, and the […] reading time was set to 0.2 second.

[2] = NCI-N87, footnote d: initial dilution concentration of compounds is 10 μM
[3] = NCI-N87, 72 h, incubation for 3 days, Cell-Titer-Glo

Sequence of HER2 (ErbB2) (P04626 23-1255): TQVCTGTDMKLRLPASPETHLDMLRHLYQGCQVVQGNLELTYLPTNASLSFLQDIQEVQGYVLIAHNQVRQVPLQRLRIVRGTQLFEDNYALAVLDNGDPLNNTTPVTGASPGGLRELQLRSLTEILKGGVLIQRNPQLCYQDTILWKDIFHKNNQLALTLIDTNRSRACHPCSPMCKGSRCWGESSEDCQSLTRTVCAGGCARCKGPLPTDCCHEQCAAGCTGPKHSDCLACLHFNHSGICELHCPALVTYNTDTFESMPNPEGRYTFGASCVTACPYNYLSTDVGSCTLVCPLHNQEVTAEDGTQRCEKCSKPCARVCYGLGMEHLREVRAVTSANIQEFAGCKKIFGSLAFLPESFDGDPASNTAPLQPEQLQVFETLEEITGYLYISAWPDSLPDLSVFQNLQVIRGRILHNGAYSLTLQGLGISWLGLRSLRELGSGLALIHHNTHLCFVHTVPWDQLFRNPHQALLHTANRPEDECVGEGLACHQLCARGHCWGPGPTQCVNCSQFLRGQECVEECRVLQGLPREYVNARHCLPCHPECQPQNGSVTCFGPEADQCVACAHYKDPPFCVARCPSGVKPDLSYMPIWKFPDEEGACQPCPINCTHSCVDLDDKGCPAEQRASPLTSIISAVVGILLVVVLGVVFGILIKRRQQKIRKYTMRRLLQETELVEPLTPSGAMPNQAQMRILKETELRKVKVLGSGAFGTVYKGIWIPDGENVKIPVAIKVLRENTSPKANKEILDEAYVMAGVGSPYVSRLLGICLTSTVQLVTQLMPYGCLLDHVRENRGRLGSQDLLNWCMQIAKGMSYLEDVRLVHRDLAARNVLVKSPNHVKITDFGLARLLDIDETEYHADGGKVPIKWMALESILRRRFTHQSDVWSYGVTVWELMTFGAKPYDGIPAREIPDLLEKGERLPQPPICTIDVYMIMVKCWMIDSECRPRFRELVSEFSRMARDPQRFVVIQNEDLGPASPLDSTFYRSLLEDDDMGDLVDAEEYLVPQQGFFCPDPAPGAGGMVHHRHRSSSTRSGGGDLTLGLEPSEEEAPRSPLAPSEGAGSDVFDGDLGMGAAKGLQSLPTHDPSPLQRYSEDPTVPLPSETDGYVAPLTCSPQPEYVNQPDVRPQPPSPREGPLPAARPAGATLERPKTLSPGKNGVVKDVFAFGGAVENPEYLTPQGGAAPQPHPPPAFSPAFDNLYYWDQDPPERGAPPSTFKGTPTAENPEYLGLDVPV
Sequence of HER4 (ErbB4) (Q15303 26-1308): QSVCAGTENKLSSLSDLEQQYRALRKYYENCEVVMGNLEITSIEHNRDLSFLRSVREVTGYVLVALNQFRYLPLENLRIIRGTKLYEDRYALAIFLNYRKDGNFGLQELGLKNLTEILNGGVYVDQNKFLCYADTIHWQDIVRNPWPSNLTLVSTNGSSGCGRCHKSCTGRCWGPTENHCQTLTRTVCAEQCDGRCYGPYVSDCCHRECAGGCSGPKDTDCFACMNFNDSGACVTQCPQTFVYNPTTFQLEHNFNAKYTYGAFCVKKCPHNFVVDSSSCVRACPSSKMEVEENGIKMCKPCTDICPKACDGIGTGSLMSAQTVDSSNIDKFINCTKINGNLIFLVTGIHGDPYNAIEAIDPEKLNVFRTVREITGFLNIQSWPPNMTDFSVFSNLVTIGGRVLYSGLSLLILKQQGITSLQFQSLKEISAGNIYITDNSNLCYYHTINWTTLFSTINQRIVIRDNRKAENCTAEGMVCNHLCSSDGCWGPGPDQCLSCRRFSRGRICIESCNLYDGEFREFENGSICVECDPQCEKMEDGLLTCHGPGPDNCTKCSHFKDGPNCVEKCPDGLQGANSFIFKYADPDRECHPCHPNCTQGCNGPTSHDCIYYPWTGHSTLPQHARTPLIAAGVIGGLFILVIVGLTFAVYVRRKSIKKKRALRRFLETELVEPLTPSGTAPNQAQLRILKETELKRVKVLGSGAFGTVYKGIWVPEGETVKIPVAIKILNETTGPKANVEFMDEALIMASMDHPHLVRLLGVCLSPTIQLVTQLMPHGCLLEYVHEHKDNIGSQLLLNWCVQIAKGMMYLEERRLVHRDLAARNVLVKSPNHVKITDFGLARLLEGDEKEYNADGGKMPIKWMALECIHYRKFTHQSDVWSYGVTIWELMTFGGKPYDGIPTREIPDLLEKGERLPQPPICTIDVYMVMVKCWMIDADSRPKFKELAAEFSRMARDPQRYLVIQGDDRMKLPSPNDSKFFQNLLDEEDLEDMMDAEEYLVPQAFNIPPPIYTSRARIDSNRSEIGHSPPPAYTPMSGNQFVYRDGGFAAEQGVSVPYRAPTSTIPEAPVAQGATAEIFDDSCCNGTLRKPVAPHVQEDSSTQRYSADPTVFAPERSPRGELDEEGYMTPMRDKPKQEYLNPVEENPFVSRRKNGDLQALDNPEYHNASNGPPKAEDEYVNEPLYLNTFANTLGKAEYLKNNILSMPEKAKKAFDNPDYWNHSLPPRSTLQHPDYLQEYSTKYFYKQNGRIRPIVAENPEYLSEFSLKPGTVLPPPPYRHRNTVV
Sequence of HER1 (ErbB1) (P00533 25-1210): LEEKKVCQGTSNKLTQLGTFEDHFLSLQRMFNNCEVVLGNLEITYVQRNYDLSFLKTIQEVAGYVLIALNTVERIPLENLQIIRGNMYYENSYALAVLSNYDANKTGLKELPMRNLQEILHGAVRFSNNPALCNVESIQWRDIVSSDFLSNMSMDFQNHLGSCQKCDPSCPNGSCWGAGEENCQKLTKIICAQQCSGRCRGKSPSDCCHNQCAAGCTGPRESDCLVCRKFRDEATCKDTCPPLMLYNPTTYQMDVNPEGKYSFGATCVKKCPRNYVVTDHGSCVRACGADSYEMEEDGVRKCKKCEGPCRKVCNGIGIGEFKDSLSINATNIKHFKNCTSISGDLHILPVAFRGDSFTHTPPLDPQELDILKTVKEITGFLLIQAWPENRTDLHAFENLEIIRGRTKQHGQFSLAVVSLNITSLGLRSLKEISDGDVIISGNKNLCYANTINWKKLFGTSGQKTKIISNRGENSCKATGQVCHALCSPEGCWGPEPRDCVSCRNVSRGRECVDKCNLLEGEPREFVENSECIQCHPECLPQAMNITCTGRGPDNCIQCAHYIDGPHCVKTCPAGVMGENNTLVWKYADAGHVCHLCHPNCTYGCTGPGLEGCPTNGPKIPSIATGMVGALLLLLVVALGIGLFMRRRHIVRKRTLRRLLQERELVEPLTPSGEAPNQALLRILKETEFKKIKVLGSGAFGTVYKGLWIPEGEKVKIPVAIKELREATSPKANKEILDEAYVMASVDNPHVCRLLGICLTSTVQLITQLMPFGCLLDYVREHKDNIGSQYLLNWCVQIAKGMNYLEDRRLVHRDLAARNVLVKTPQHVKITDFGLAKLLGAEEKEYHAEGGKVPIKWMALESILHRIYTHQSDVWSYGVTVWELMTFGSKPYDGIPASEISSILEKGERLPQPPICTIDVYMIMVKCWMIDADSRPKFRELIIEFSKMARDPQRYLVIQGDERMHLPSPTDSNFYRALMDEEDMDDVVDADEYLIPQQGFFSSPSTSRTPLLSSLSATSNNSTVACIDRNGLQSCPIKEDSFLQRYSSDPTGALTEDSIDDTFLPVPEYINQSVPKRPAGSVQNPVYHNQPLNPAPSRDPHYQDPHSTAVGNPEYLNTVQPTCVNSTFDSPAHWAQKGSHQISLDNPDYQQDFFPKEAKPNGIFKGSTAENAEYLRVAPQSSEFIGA

| SMILES | IC50 (HER1 (ErbB1)) | IC50 (HER4 (ErbB4)) | Tumor volume (mm3) (Day 21) [1] | T/C (%) [1] | TGI (%) [1] | body weight of test animals (reference index for drug toxicity) [1] | IC50 (HER2 (ErbB2)) | IC50 (NCI-N87 cell; [2]) | IC50 (NCI-N87 cell; [3]) |
| --- | --- | --- | --- | --- | --- | --- | --- | --- | --- |
| C=CC(=O)N1C[C@H]2C[C@@H](C1)[C@H]2Oc1cc2c(Nc3ccc(Cl)c(Cl)c3F)ncnc2cc1OC [Example 1] | 2 nM | 10 nM | 122 ± 11 mm3 | 16.62% | 103.98% | significantly better than that of the control compound Poziotinib | 3 nM | < 1.5 nM | – |
| C=CC(=O)N1C[C@H]2C[C@@H](C1)[C@H]2Oc1cc2c(Nc3ccc(F)c(Cl)c3)ncnc2cc1OC [Example 3] | 2 nM | 17 nM | – | – | – | – | 5 nM | – | – |
| C=CC(=O)N1C[C@H]2C[C@@H](C1)[C@H]2Oc1cc2c(Nc3ccc(C#N)c(Cl)c3)ncnc2cc1OC [Example 4] | 2 nM | 13 nM | – | – | – | – | 3 nM | – | – |
| C=CC(=O)N1C[C@H]2C[C@@H](C1)[C@H]2Oc1cc2c(Nc3cccc(Cl)c3F)ncnc2cc1OC [Example 5] | 9 nM | 157 nM | – | – | – | – | 24 nM | – | – |
| C=CC(=O)N1C[C@H]2C[C@@H](C1)[C@H]2Oc1cc2c(Nc3ccc(OC(F)(F)F)c(Cl)c3)ncnc2cc1OC [Example 6] | 2 nM | 17 nM | – | – | – | – | 4 nM | – | – |
| C=CC(=O)N1[C@@H]2CC[C@H]1C[C@@H](Oc1cc3c(Nc4ccc(Cl)c(Cl)c4F)ncnc3cc1OC)C2 [Example 7] | 40 nM | 61 nM | 188 ± 9 mm3 | 26.10% | 92.63% | significantly better than that of the control compound Poziotinib | 69 nM | 1.5 nM | – |
| C=CC(=O)N1[C@@H]2CC[C@H]1C[C@H](Oc1cc3c(Nc4ccc(Cl)c(Cl)c4F)ncnc3cc1OCC(F)(F)F)C2 [Example 20] | 18 nM | 10 nM | – | – | – | – | 11 nM | – | 0.6 nM |
| C=CC(=O)N1[C@@H]2CC[C@H]1C[C@H](Oc1cc3c(Nc4ccc(Cl)c(Cl)c4F)ncnc3cc1OCCOC)C2 [Example 22] | 12 nM | 3 nM | – | – | – | – | 7 nM | – | – |
| C=CC(=O)N1[C@@H]2CC[C@H]1C[C@H](Oc1cc3c(Nc4ccc(Cl)c(Cl)c4F)ncnc3cc1OCC(=O)NC)C2 [Example 23] | 8 nM | 2 nM | – | – | – | – | 4 nM | – | 0.14 nM |
| C=CC(=O)N1[C@@H]2CC[C@H]1C[C@H](Oc1cc3c(Nc4ccc(Cl)c(Cl)c4F)ncnc3cc1OCCCN1CCOCC1)C2 [Example 24] | 10 nM | 3 nM | – | – | – | – | 6 nM | – | 0.17 nM |
| C=CC(=O)N1[C@@H]2CC[C@H]1C[C@H](Oc1cc3c(Nc4ccc(Cl)c(Cl)c4F)ncnc3cc1OCCO)C2 [Example 25] | 6 nM | 6 nM | – | – | – | – | 3 nM | – | 0.19 nM |
| C=CC(=O)N1[C@@H]2CC[C@H]1C[C@H](Oc1cc3c(Nc4ccc(Cl)c(Cl)c4F)ncnc3cc1O[C@H]1CCOC1)C2 [Example 26] | 8 nM | 4 nM | – | – | – | – | 5 nM | – | 0.24 nM |
| C=CC(=O)N1[C@@H]2CC[C@H]1C[C@H](Oc1cc3c(Nc4ccc(Cl)c(Cl)c4F)ncnc3cc1O[C@@H]1CCOC1)C2 [Example 27] | 16 nM | 3 nM | – | – | – | – | 5 nM | – | 0.31 nM |
| C=CC(=O)N1[C@@H]2CC[C@H]1C[C@H](Oc1cc3c(Nc4ccc(Cl)c(Cl)c4)ncnc3cc1OC)C2 [Example 32] | 15 nM | 3 nM | – | – | – | – | 5 nM | – | 0.29 nM |
| C=CC(=O)N1[C@@H]2CC[C@H]1C[C@H](Oc1cc3c(Nc4cccc(Cl)c4F)ncnc3cc1OC)C2 [Example 33] | 7 nM | 3 nM | – | – | – | – | 6 nM | – | – |
| C=CC(=O)N1[C@@H]2CC[C@H]1C[C@H](Oc1cc3c(Nc4ccc(F)c(Cl)c4)ncnc3cc1OC)C2 [Example 40] | 11 nM | 2 nM | – | – | – | – | 5 nM | – | 0.34 nM |
| C=CC(=O)N1[C@@H]2CC[C@H]1C[C@H](Oc1cc3c(Nc4ccc(Cl)c(Cl)c4F)ncnc3cc1OC1COC1)C2 [Example 42] | – | – | – | – | – | – | – | – | 0.92 nM |
| C=CC(=O)N1[C@@H]2CC[C@H]1C[C@H](Oc1cc3c(Nc4ccc(Cl)c(Cl)c4F)ncnc3cc1OCCCO)C2 [Example 44] | 5 nM | 3 nM | – | – | – | – | 4 nM | – | 0.33 nM |
| C=CC(=O)N1[C@@H]2CC[C@H]1C[C@H](Oc1cc3c(Nc4ccc(Cl)c(Cl)c4F)ncnc3cc1OCCC(C)(C)O)C2 [Example 45] | 8 nM | 10 nM | – | – | – | – | 7 nM | – | 0.69 nM |
